Measured values reported in ChEMBL document CHEMBL1132806, “Anti-HIV activity of a series of cosalane amino acid conjugates” (Bioorg Med Chem Lett, 2000).
pEC50: −log10 of the molar value.

Assays:
[1] = test system: MT4; assay: Tested for inhibition of cytopathic effect of HIV-1 IIIB in MT-4 cells; assay type: functional, cell-based; settings: Homo sapiens
[2] = Cytotoxicity of compound was tested as concentration required for 50% reduction in cellular viability in CEM-SS cells; assay type: cell-based; settings: human
[3] = Cytotoxicity of compound was tested as concentration required for 50% reduction in cellular viability in MT-4 cells; assay type: cell-based, MT4; settings: human
[4] = test system: CEM-SS; assay: Tested for inhibition of cytopathic effect of HIV-1RF in CEM-SS cells; assay type: functional, cell-based; settings: Homo sapiens
[5] = test system: MT4; assay: Tested for inhibition of cytopathic effect of HIV-2ROD in MT-4 cells; assay type: functional, cell-based; settings: Homo sapiens

| Structure (SMILES) | pEC50 [4] | pEC50 [1] | CC50 [2] [µM] | CC50 [3] [µM] | pEC50 [5] |
| --- | --- | --- | --- | --- | --- |
| CC(C)CCCC(C)[C@H]1CC[C@H]2[C@@H]3CCC4C[C@@H](CCC=C(c5cc(Cl)c(O)c(C(=O)NCC(=O)O)c5)c5cc(Cl)c(O)c(C(=O)NCC(=O)O)c5)CC[C@]4(C)[C@H]3CC[C@]12C (stereo partly specified) | 5.46 | 4.29 | > 200 | > 125 | < 3.90 |
| CC(C)CCCC(C)[C@H]1CC[C@H]2[C@@H]3CCC4C[C@@H](CCC=C(c5cc(Cl)c(O)c(C(=O)NCC(=O)OC(C)(C)C)c5)c5cc(Cl)c(O)c(C(=O)NCC(=O)OC(C)(C)C)c5)CC[C@]4(C)[C@H]3CC[C@]12C (stereo partly specified) |  | < 3.90 | > 125 | > 125 | < 3.90 |
| CC(C)CCCC(C)[C@H]1CC[C@H]2[C@@H]3CCC4C[C@@H](CCC=C(c5cc(Cl)c(O)c(C(=O)NCCC(=O)O)c5)c5cc(Cl)c(O)c(C(=O)NCCC(=O)O)c5)CC[C@]4(C)[C@H]3CC[C@]12C (stereo partly specified) | 4.46 | 4.12 | > 200 | > 125 | 3.92 |
| CC(C)CCCC(C)[C@H]1CC[C@H]2[C@@H]3CCC4C[C@@H](CCCC(c5cc(Cl)c(O)c(C(=O)NCC(=O)O)c5)c5cc(Cl)c(O)c(C(=O)NCC(=O)O)c5)CC[C@]4(C)[C@H]3CC[C@]12C (stereo partly specified) | 5.35 | 4.46 | > 200 | > 125 | < 3.90 |
| CC(C)CCCC(C)[C@H]1CC[C@H]2[C@@H]3CCC4C[C@@H](CCC=C(c5cc(Cl)c(O)c(C(=O)N[C@@H](Cc6ccccc6)C(=O)O)c5)c5cc(Cl)c(O)c(C(=O)N[C@@H](Cc6ccccc6)C(=O)O)c5)CC[C@]4(C)[C@H]3CC[C@]12C (stereo partly specified) | < 3.70 | < 4.21 | > 200 | 62 | < 4.21 |
| CC(C)CCCC(C)[C@H]1CC[C@H]2[C@@H]3CCC4C[C@@H](CCC=C(c5cc(Cl)c(O)c(C(=O)O)c5)c5cc(Cl)c(O)c(C(=O)O)c5)CC[C@]4(C)[C@H]3CC[C@]12C (stereo partly specified) |  |  | > 200 | > 200 |  |

Now from value to compound, other results behind:

| pEC50 [4] | Structure (SMILES) | pEC50 [1] | CC50 [2] [µM] | CC50 [3] [µM] | pEC50 [5] |
| --- | --- | --- | --- | --- | --- |
| 4.40 | CC(C)CCCC(C)[C@H]1CC[C@H]2[C@@H]3CCC4C[C@@H](CCC=C(c5cc(Cl)c(O)c(C(=O)N[C@@H](CC(C)C)C(=O)O)c5)c5cc(Cl)c(O)c(C(=O)N[C@@H](CC(C)C)C(=O)O)c5)CC[C@]4(C)[C@H]3CC[C@]12C (stereo partly specified) | 4.20 | > 200 | > 125 | < 3.90 |
| 4.97 | CC(C)CCCC(C)[C@H]1CC[C@H]2[C@@H]3CCC4C[C@@H](CCC=C(c5cc(Cl)c(O)c(C(=O)N[C@@H](CC(=O)O)C(=O)O)c5)c5cc(Cl)c(O)c(C(=O)N[C@@H](CC(=O)O)C(=O)O)c5)CC[C@]4(C)[C@H]3CC[C@]12C (stereo partly specified) | 4.78 | 90 | > 125 | 3.91 |
| 4.94 | CC(C)CCCC(C)[C@H]1CC[C@H]2[C@@H]3CCC4C[C@@H](CCCC(c5cc(Cl)c(O)c(C(=O)N[C@@H](CCC(=O)O)C(=O)O)c5)c5cc(Cl)c(O)c(C(=O)N[C@@H](CCC(=O)O)C(=O)O)c5)CC[C@]4(C)[C@H]3CC[C@]12C (stereo partly specified) | 4.97 | 34 | > 125 | 4.12 |
| 5.96 | CC(C)CCCC(C)[C@H]1CC[C@H]2[C@@H]3CCC4C[C@@H](CCC=C(c5cc(Cl)c(O)c(C(=O)N[C@@H](CCC(=O)O)C(=O)O)c5)c5cc(Cl)c(O)c(C(=O)N[C@@H](CCC(=O)O)C(=O)O)c5)CC[C@]4(C)[C@H]3CC[C@]12C (stereo partly specified) | 5.04 | 82 | > 125 | 4.15 |
